Assay results: patent US20250326748A1, “COMPOUNDS AND METHODS FOR MODULATING SPLICING” (REMIX THERAPEUTICS INC., priority 2022, published 2025)
Where a name gives a salt, the structure may show the parent alone. Read-outs that look alike come from different tables or passages of the source.

Legend:
HTT mRNA = assay: Splicing RT-qPCR assay, HTT canonical (CJ) and alternative (AJ) junction mRNA; assay type: cell-based, human; conditions: Homo sapiens; for IC50: canonical junction mRNA; for AC50: alternative junction mRNA, read-out: HTT AJ (AC50, increase in AJ mRNA)
In short: (§1)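 Treatment of A673 or K562 cultures with compounds (eleven-point titration, highest final 10 uM, ≤0.25% DMSO) ran one day at 37 °C. Afterwards cells were lysed directly in the well, and cDNA synthesis coupled with qPCR measured CJ and AJ isoform levels against a reference transcript.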

MYB mRNA = assay: Splicing RT-qPCR assay, MYB canonical (CJ) and alternative (AJ) junction mRNA; assay type: cell-based, human; conditions: Homo sapiens; for IC50: canonical junction mRNA; for AC50: alternative junction mRNA, read-out: MYB AJ (AC50, increase in AJ mRNA)
In short: as §1

SMN2 mRNA = assay: Splicing RT-qPCR panel, SMN2 canonical junction (CJ) mRNA; assay type: cell-based, human; conditions: Homo sapiens, read-out: SMN2 CJ (decrease in CJ mRNA levels, IC50)
In short: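 A673 cells (DMEM, 10% FBS) or K562 cells (IMDM, 10% FBS) treated 24 h at 37 °C with an 11-point 3-fold dilution, top 10 uM, DMSO ≤0.25%. Canonical-junction mRNA quantified in lysates by RT-qPCR, normalised to GAPDH, GUSB or PPIA and to DMSO (2^−ΔΔCt), then converted to % response.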

K562 cells = assay: Cell viability, Cell Titer Glo 2.0 assay, K562; conditions: 72 hours
[1] = 24 h, RT-qPCR, A673 or K562 cells, 24 hours treatment, read-out: HTT CJ (IC50, decrease in CJ mRNA)
[2] = qPCR panel, read-out: HTT CJ (decrease in CJ mRNA levels, IC50)
[3] = RT-qPCR, A673 or K562 cells, 24 hours treatment
[4] = qPCR panel, read-out: MYB CJ (decrease in CJ mRNA levels, IC50)
[5] = RT-qPCR, A673 or K562 cells, 24 hours treatment, read-out: MYB CJ (IC50, decrease in CJ mRNA)

Row | IC50 (HTT mRNA; [1]) [nM] | IC50 (HTT mRNA; [2]) [nM] | IC50 (MYB mRNA; [4]) [nM] | IC50 (MYB mRNA; [5]) [nM] | IC50 (SMN2 mRNA) [nM] | SMILES | AC50 (HTT mRNA; [3]) [nM] | AC50 (MYB mRNA; [3]) [nM] | Effect on Cell Viability, K562 (K562 cells)
1 | 1000 to 10000 | 1000 to 10000 | 100 to 1000 | 100 to 1000 | < 100 | C[C@@H]1CN(c2cnc3nc(-c4cc(F)c5nn(C)cc5c4)cc(Cl)c3c2)C[C@H](C)N1 [Compound 215] | 1000 to 10000 | 100 to 1000 | B (100-1000 nM)
2 | 1000 to 10000 | 1000 to 10000 | 100 to 1000 | 100 to 1000 | < 100 | Cn1cc2cc(-c3cc(Cl)c4cc(N5CCN6CCCC6C5)cnc4n3)cc(F)c2n1 (stereo not shown) [Compound 216, 4-chloro-2-(7-fluoro-2-methylindazol-5-yl)-6-{hexahydro-1H-pyrrolo[1,2-a]pyrazin-2-yl}-1,8-naphthyridine trifluoroacetic acid] | 1000 to 10000 | 100 to 1000 | B (100-1000 nM)
3 | > 10000 | > 10000 | > 10000 | > 10000 | > 10000 | Cc1c(O)c(-c2cc(-c3ccccn3)c3cc(N4C[C@@H](C)N[C@@H](C)C4)cnc3n2)cc2cn(C)nc12 [Compound 217, 5-{6-[(3R,5S)-3,5-dimethylpiperazin-1-yl]-4-(pyridin-2-yl)-1,8-naphthyridin-2-yl}-2,7-dimethylindazol-6-ol] | > 10000 | > 10000 | C (1000-9999 nM)
4 | < 100 | < 100 | < 100 | < 100 | < 100 | COc1nc(-c2cc3cn(C)nc3c(F)c2O)nc2ncc(N3C[C@@H](C)N[C@@H](C)C3)cc12 [Compound 218] | 100 to 1000 | < 100 | A (<100 nM)
5 | < 100 | < 100 | < 100 | < 100 | < 100 | COc1nc(-c2cc3cn(C)nc3c(F)c2O)nc2ncc(N3CCC(N(C)C)CC3)cc12 [Compound 219, 5-{6-[4-(dimethylamino)piperidin-1-yl]-4-methoxypyrido[2,3-d]pyrimidin-2-yl}-7-fluoro-2-methylindazol-6-ol] | 100 to 1000 | < 100 | A (<100 nM)
6 | < 100 | < 100 | < 100 | < 100 | < 100 | CN(C)[C@@H]1CCN(c2cnc3nc(-c4cc5cn(C)nc5c(F)c4O)cc(Cl)c3c2)C1 [Compound 220] | 100 to 1000 | < 100 | A (<100 nM)
7 | < 100 | < 100 | < 100 | < 100 | < 100 | CN(C)[C@H]1CCN(c2cnc3nc(-c4cc5cn(C)nc5c(F)c4O)cc(Cl)c3c2)C1 [Compound 221] | 100 to 1000 | < 100 | A (<100 nM)
8 | 100 to 1000 | 100 to 1000 | < 100 | < 100 | < 100 | C[C@H]1CN(c2cnc3nc(-c4cc5cn(C)nc5cc4O)cc(Cl)c3c2)C[C@H](C)N1 [Compound 242] | 100 to 1000 | < 100 | A (<100 nM)
9 | 1000 to 10000 | 1000 to 10000 | 100 to 1000 | 100 to 1000 | < 100 | C[C@@H]1CN(c2cnc3nc(-c4cc5cn(C)nc5cc4O)cc(Cl)c3c2)C[C@@H](C)N1 [Compound 243, 5-{4-chloro-6-[(3R,5R)-3,5-dimethylpiperazin-1-yl]-1,8-naphthyridin-2-yl}-2-methylindazol-6-ol hydrochloride] | 1000 to 10000 | 100 to 1000 | B (100-1000 nM)
10 | 100 to 1000 | 100 to 1000 | < 100 | < 100 | < 100 | C[C@H]1CN(c2cnc3nc(-c4cc(F)c5nn(C)cc5c4)cc(Cl)c3c2)C[C@H](C)N1 [Compound 250] | 100 to 1000 | < 100 | A (<100 nM)
11 | 1000 to 10000 | 1000 to 10000 | 100 to 1000 | 100 to 1000 | < 100 | C[C@@H]1CN(c2cnc3nc(-c4cc(F)c5nn(C)cc5c4)cc(Cl)c3c2)C[C@@H](C)N1 [Compound 251] | 1000 to 10000 | 100 to 1000 | B (100-1000 nM)
12 | > 10000 | < 100 | < 100 | 1000 to 10000 | < 100 | Cc1c(O)c(-c2cc(-c3nnc[nH]3)c3cc(N4C[C@@H](C)N[C@@H](C)C4)cnc3n2)cc2cn(C)nc12 [Compound 261, 5-{6-[(3R,5S)-3,5-dimethylpiperazin-1-yl]-4-(4H-1,2,4-triazol-3-yl)-1,8-naphthyridin-2-yl}-2,7-dimethylindazol-6-ol] | > 10000 | > 10000 | D (greater than 10 μM)
13 | 100 to 1000 | 100 to 1000 | < 100 | < 100 | < 100 | C[C@@H]1CN(c2cnc3nc(-c4cc5cn(C)nc5c(F)c4O)cc(C#N)c3c2)C[C@H](C)N1 [Compound 266, 6-[(3R,5S)-3,5-dimethylpiperazin-1-yl]-2-(7-fluoro-6-hydroxy-2-methylindazol-5-yl)-1,8-naphthyridine-4-carbonitrile hydrochloride] | 1000 to 10000 | 100 to 1000 | A (<100 nM)
14 | < 100 | < 100 | < 100 | < 100 | < 100 | CN[C@@H]1CCN(c2cnc3nc(-c4cc5cn(C)nc5c(F)c4O)cc(Cl)c3c2)C1 [Compound 271] | < 100 | < 100 | A (<100 nM)
